Experimental data taken from paper PMC6735331, “Competitive α-glucosidase inhibitors, dihydrobenzoxanthones, from the barks of Artocarpus elasticus” (Journal of Enzyme Inhibition and Medicinal Chemistry, 2019).
“Also recorded” adds a separate entry of the source. Where two headings read alike, the source gives them in different places.

Assays:
α-glucosidase [1] = target: T1, α-glucosidase (Saccharomyces cerevisiae, UniProt P53341); assay: Binding affinity measurement by fluorescence quenching (Stern–Volmer); settings: for KSV: Stern–Volmer constant
T1 construct: purchased Sigma Aldrich
T1 sequence (P53341 whole entry): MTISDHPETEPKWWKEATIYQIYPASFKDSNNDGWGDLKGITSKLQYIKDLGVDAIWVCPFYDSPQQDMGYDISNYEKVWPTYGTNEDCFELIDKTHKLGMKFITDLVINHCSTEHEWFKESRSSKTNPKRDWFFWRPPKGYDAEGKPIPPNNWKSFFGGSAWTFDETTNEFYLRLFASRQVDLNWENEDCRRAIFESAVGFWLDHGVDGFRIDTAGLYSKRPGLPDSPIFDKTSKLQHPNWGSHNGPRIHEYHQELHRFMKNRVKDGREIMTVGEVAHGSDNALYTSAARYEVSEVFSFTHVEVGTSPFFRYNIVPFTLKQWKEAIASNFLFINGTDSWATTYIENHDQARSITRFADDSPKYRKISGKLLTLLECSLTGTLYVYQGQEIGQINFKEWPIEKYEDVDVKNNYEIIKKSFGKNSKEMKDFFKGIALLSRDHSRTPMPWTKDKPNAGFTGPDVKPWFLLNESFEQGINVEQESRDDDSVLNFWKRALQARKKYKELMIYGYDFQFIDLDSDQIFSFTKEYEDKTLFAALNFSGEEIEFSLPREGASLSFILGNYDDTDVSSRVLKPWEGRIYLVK
Protocol: 180 µL of 50 mM phosphate buffer (pH 6.8) with 10 µL of 0.2 unit/mL α-glucosidase were added into the 96-well black immuno-plates then 10 µL different concentrations (2–32 µM) of inhibitor were added. Fluorescent emission spectra were recorded from 300 to 400 nm, emission slits adjusted to 2.0 nm, and the excitation was 250 nm, using spectrophotometer (SpectraMax M3). There was no significant emission from any ingredient in the assay system under given experimental conditions (i.e. emission from 300 to 400 nm). A level of affinity was expressed with KSV, which was analysed using the Stern–Volmer equation: (12) […]=1+KSV[Qf] where F0 and F are the fluorescence intensities in the absence and presence of a quencher. Qf is a concentration of compounds.

[2] = target: T2, α-glucosidase (EC3.2.1.20) (Saccharomyces cerevisiae, UniProt P53341); assay: α-Glucosidase enzyme kinetics (Lineweaver–Burk, Dixon plots, secondary plots, Yang's method); format: biochemical; design: Vmax: unit not given here; settings: for Kik/Kiv: Yang's method; for Kinetic mode: double reciprocal (Lineweaver–Burk) plots; for KIS: inhibitor binding with enzyme-substrate complex, secondary plots of intercepts
T2 construct: purchased Sigma Aldrich
T2 sequence (P53341 whole entry): as above
Protocol: Similarly, the enzyme kinetic modes were clarified using a different p-nitrophenyl-α-D-glucopyranoside substrate (0, 0.5, 1, and 2 mM) and inhibitors concentrations. Analysis of the data used to determine the individual parameters of curves was prepared in the nonlinear regression program Sigma Plot (SPCC Inc., Chicago, IL, USA). The kinetic parameters, Michaelis–Menten (Km) and maximum velocity (Vmax), were found using Lineweaver–Burk plots. The dissociation constants between inhibitor and enzyme (Ki) were found from Dixon plots. Two inhibition constants for inhibitor binding with either free or enzyme-substrate complex, KI or KIS, were calculated from secondary plots of the slopes of the straight lines or vertical intercept (1/ Vmaxapp ), respectively, verse the concentration of inhibitors by Equations (2)–(4). Kik and Kiv rate constants were calculated according to Equations (5) and (6) proposed by Yang et al.[20]: (2) 1/V=Km/Vmax(1 + [I]/KI)1/S + 1/Vmax (3) Slope =Km/KIVmax[I] +Km/Vmax (4) Intercept = 1/KISVmax[I] +[…] (5) Km=Km0× (1 + [I]/Kik) (6) Vm=Vm0× (1 + [I]/Kiv)

[3] = target: T2, α-glucosidase (EC3.2.1.20); assay: biochemical
Protocol: The inhibitory activity of α-glucosidase (EC3.2.1.20) was carried out with a few changes from literature reported method, using p-nitrophenyl-α-D-glucopyranoside at optimal pH of 6.8 (50 mM phosphate buffer)[3]. Inhibitors were dissolved and diluted to a needed concentration in DMSO. […] The absorbance of formed p-nitrophenol immediately measured with a wavelength of 405 nm at 37 °C. […] Calculation of the % of inhibition was as follows: (1) Activity (%)=100[1+([I]/IC50)]

[4] = target: T2, α-glucosidase (EC3.2.1.20); assay: α-Glucosidase enzyme kinetics (Lineweaver–Burk, Dixon plots, secondary plots, Yang's method); format: biochemical; settings: enzyme activity vs. enzyme concentration at different inhibitor concentrations
α-glucosidase [5] = target: T1, α-glucosidase; assay: Progress curves and time-dependent (slow-binding) assay; format: biochemical
Protocol: Time-dependent assays of inhibitors at the different preincubation time (0, 15, 30, 45, 60 and 80 min) were accomplished using 0.05 unit/mL final concentration of α-glucosidase and p-nitrophenyl-α-D-glucopyranoside substrate (1 mM) in 50 mM phosphate buffer (pH 6.8) at 37 °C[21]. The progress curves were monitored every 30 s for 30 min. Furthermore, to clearly understand the time-dependent inhibition mode of α-glucosidase, inhibitors were assayed using different concentrations. Accordingly, the progress curves were calculated using Equations (7)–(11). Analysis of the data was prepared by the nonlinear regression program Sigma Plot (SPCC Inc., Chicago, IL, USA): (7) [P]t/[E]= vst+ vi−vs/kobs(1−e^−kobst) where [P]t is the concentration of product formed and [E] is the total enzyme concentration. (8) v/v0= exp (−kobst) (9) Enz+I⇄k4k3Enz−I (10) kobs=k4(1+[I]/Kiapp) (11) Kiapp=k4/k3

[6] = fluorescence quenching, read-out: KA (converted)
[7] = p-NPG substrate, 50 mM phosphate buffer pH 6.8, 37 °C, read-out: IC50
[8] = from Dixon plots, read-out: Ki (inhibition constant)
[9] = slow-binding fit, Equations (10) and (11)

Row | Structure (SMILES) | KSV (α-glucosidase [1]; pH 6.8, 37 °C) | Kd (α-glucosidase [1]; [6]) | Vmax ([2]; [I] 7.5 μM) | Kik/Kiv ([2]; [I] 7.5 μM) | Vmax ([2]; [I] 15.0 μM) | Kik/Kiv ([2]; [I] 15.0 μM) | Vmax ([2]; [I] 30.0 μM) | Kik/Kiv ([2]; [I] 30.0 μM) | Kinetic mode [2] | KIS [2] | IC50 [3, 7] | KSV (α-glucosidase [1]) | Ki [2, 8] | further results
1 | CC(C)=CCCC1(C)C=Cc2c(cc(O)c3c(=O)c(CC=C(C)C)c(-c4cc(O)c(O)cc4O)oc23)O1 (single isomer, unassigned; (-)) [Compound 5, (-)-2-(2,4,5-trihydroxyphenyl)-3-(3-methyl-2-buten-1-yl)-5-hydroxy-8-methyl-8-(4-methyl-3-penten-1-yl)-4H,8H-benzo[1,2-b:3,4-b']dipyran-4-one] | 1.63 ×10^5 L·mol^–1 | 1.23 µM | 4.74 | 3.79 | 3.67 | 3.18 | 2.79 | 3.25 | Mixed type I | 20.4 µM | 8.8 ± 0.3 µM | – | – | Ki ([2]; inhibitor binding with free enzyme, secondary plots of slopes, read-out: KI): 5.4 µM
2 | C=C(C)C1Cc2c(oc3cc(OC)cc(O)c3c2=O)-c2c(O)cc(O)c(O)c21 (centres unmarked) [Compound 1, 1,3,4,8-tetrahydroxy-10-methoxy-5-(prop-1-en-2-yl)-5,6-dihydro-benzo[c]xanthen-7-one] | 1.84 ×10^5 L·mol^–1 | 1.27 µM | – | – | – | – | – | – | Competitive | – | 7.6 ± 0.2 µM | 1.84 × 10^5 Lmol^−1 | 2.9 µM | Vmax ([2]; [I] 4.0 μM): 6.30; Kik/Kiv ([2]; [I] 4.0 μM): 55.80; Vmax ([2]; [I] 8.0 μM): 6.50; Kik/Kiv ([2]; [I] 8.0 μM): 48.88; Vmax ([2]; [I] 16.0 μM): 7.55; Kik/Kiv ([2]; [I] 16.0 μM): 29.79; Reversibility of inhibition [4]: reversible inhibitor; Time-dependent inhibition mode (α-glucosidase [5]; preincubation time dependence, kobs vs [I]): competitive and reversible simple slow-binding; also recorded: slow-binding inhibitor; k3 (α-glucosidase [5]; [9]): 728 M⁻¹ s⁻¹; k4 (α-glucosidase [5]; [9]): 0.0166 min⁻¹; Ki (α-glucosidase [5]; slow-binding fit, Kiapp = k4/k3): 0.38 µM
3 | C=C(C)[C@H]1Cc2c(oc3c4c(cc(O)c3c2=O)OC(C)(C)C=C4)-c2c(O)cc(O)c(O)c21 [Compound 2, artobiloxanthone] | 1.53 ×10^5 L·mol^–1 | 1.32 µM | 9.7056 | 76.6587 | 9.6712 | 102.4604 | 9.8012 | 209.3396 | Competitive | – | 8.6 ± 0.5 µM | – | 5.1 µM | –
4 | CC1(C)Oc2c(O)cc(O)c3c2C1Cc1c-3oc2cc(O)cc(O)c2c1=O (centres unmarked) [Compound 3, artoindonesianin P] | 0.51 ×10^5 L·mol^–1 | 1.75 µM | – | – | – | – | – | – | Competitive | – | 25.4 ± 0.7 µM | 0.51 × 10^5 Lmol^−1 | 12.6 µM | Vmax ([2]; [I] 17.5 μM): 6.6800; Kik/Kiv ([2]; [I] 17.5 μM): 23.8593; Vmax ([2]; [I] 35 μM): 6.7889; Kik/Kiv ([2]; [I] 35 μM): 31.6240; Vmax ([2]; [I] 70 μM): 6.7204; Kik/Kiv ([2]; [I] 70 μM): 75.7804
5 | CC1(C)C=Cc2c(cc(O)c3c(=O)c4c(oc23)-c2c(O)cc(O)c3c2C(C4)C(C)(C)O3)O1 (centres unmarked) [Compound 4, cycloartobiloxanthone] | 1.29 ×10^5 L·mol^–1 | 1.27 µM | 6.3816 | 16.6987 | 7.3692 | 11.4837 | 7.4627 | 20.2662 | Competitive | – | 9.6 ± 0.6 µM | – | 5.8 µM | –
6 | CC(C)=CCc1c(-c2cc(O)c(O)cc2O)oc2c3c(cc(O)c2c1=O)OC(C)(C)C=C3 [Compound 6, artonin E] | 0.93 ×10^5 L·mol^–1 | – | 5.0352 | 3.7049 | 4.2992 | 2.5098 | 3.6219 | 1.8101 | Mixed type I | 51.7 µM | – | 0.93 × 10^5 Lmol^−1 | – | Kd (α-glucosidase [1]): 1.28 µM; Ki ([2]; KI, inhibitor binding with free enzyme, secondary plots of slopes): 15.4 µM; Ki ([2]; Ki (inhibition constant), from Dixon plots): 15.8 µM; IC50 [3]: 16.2 ± 0.8 µM
